Assay results as given in PubChem BioAssay AID1508612.

Test: passive permeability, PAMPA, ADME assay (AID 1508612)
Details: pH 7.4, 30.0 min, 50.0 µM

SMILES | Papp
COc1ccc(CNC(=O)c2cnc3ccccc3n2)cc1 | > 1000 ×10⁻⁶ cm/s
COc1ccccc1N1CCN(CCN(C(=O)c2ccc(I)cc2)c2ccccn2)CC1 | > 1000 ×10⁻⁶ cm/s
O=C(c1nc(-c2ccc(Cl)nc2)c2ccccn12)N1CCCC1 | > 1000 ×10⁻⁶ cm/s
O=C(CCCc1ccc2cccnc2n1)NCc1cc(-c2ccc(F)c(C(F)(F)F)c2)no1 | > 1000 ×10⁻⁶ cm/s
Fc1cc(Nc2nc(-c3ccncc3)nc3ccccc23)ccc1-c1ccc(F)c(F)c1F | 57.5 ×10⁻⁶ cm/s
CCOc1ccc(C2C(C(=O)Nc3ccccc3OC)=C(C)Nc3c(C(=O)Nc4cccc(C)c4)cnn32)cc1 (stereo unspecified) | 871 ×10⁻⁶ cm/s
COc1ccc(Nc2cnc3ccc(-c4ccc(OC)c(OC)c4)nn23)cc1 | 396 ×10⁻⁶ cm/s
COc1cccc(CC(=O)Nc2nc(-c3ccc4c(c3)CCN4C(=O)c3ccccc3C)c(C)s2)c1 | 674 ×10⁻⁶ cm/s
Cc1cc(-c2nnc3n2CCCCC3)c(C)n1-c1cccnc1 | 49.2 ×10⁻⁶ cm/s
COc1cc2c(Oc3ccc(-c4cnc(Nc5ccc(F)cc5)n(C)c4=O)cc3F)ccnc2cc1OCCCN1CCOCC1 | 92.9 ×10⁻⁶ cm/s
COc1ccc(C)cc1NC(=O)c1cnc(-c2ccc(F)cc2)nc1-c1ccncc1 | 130 ×10⁻⁶ cm/s
COc1ccccc1N1CCN(c2ccc3cc(S(=O)(=O)N4CCCCC4)ccc3n2)CC1 | > 1000 ×10⁻⁶ cm/s
NC(=O)C1CCN(c2ncnc(-c3ccc4c(c3)OCCCO4)n2)CC1 | 254 ×10⁻⁶ cm/s
CNc1nccc(-c2cccc3ccccc23)n1 | 905 ×10⁻⁶ cm/s
O=S(=O)(c1ccc2ccccc2c1)N1CCN(c2nc(-c3cccs3)nc3ccccc23)CC1 | 3.2 ×10⁻⁶ cm/s
NC(=O)C(=O)N/N=C/c1ccc([N+](=O)[O-])o1 | 7.99 ×10⁻⁶ cm/s
COc1c(O)cc2c(c1OC)-c1ccc(SC)c(=O)cc1C(NC(C)=O)CC2 (stereo unspecified) | 19.5 ×10⁻⁶ cm/s
C[C@@H](O)CNC(C)(C)CC(=O)N[C@@H]1CCc2ccccc2N(Cc2ccc(-c3ccccc3-c3nn[nH]n3)cc2)C1=O | < 1 ×10⁻⁶ cm/s
C=CCc1ccc(O)c(-c2ccc(O)c(CC=C)c2)c1 | > 1000 ×10⁻⁶ cm/s
O=c1ncn2nc(Sc3ccc(F)cc3F)ccc2c1-c1c(Cl)cccc1Cl | 866 ×10⁻⁶ cm/s
C=Cc1ccc(C(=O)N2CCCC(CCC(=O)N3CCN(c4ccccn4)CC3)C2)cc1 (stereo unspecified) | 421 ×10⁻⁶ cm/s
O=S(=O)(Nc1nccs1)c1ccc(NCc2cccc(O)c2)cc1 | 1.15 ×10⁻⁶ cm/s
O=c1cc(-c2nc(Nc3ccc(F)c(F)c3)c3ccccc3n2)cc[nH]1 | 396 ×10⁻⁶ cm/s
Cn1c(=O)c2cc(C(=O)NCCCN3CCN(c4ccccc4F)CC3)sc2c2ccccc21 | > 1000 ×10⁻⁶ cm/s
Cc1noc(-c2cn(C3CCN(C(=O)c4ccc(OC(F)(F)F)cc4)CC3)nn2)n1 | 10.2 ×10⁻⁶ cm/s
O=C1NCc2cc(-c3cc4c(ccn4Cc4ccncc4)c(N4CCOCC4)n3)ccc21 | 189 ×10⁻⁶ cm/s

SMILES | Papp
Cc1cc(NS(=O)(=O)c2ccc(NC(=O)Cc3ccc(F)c(Cl)c3)cc2)no1 | 10.4 ×10⁻⁶ cm/s
O=C(Nc1nc(-c2ccccc2)cs1)c1ccncc1NS(=O)(=O)c1ccc(F)cc1F | 798 ×10⁻⁶ cm/s
CCCCN(C)C(=O)c1c(C)sc2ccn(CCC)c(=O)c12 | 124 ×10⁻⁶ cm/s
Cc1cc(NS(=O)(=O)c2ccc(N(C)C(=O)Cc3ccc(Cl)c(Cl)c3)cc2)no1 | 48.1 ×10⁻⁶ cm/s
CCCc1oc2ccc(NS(=O)(=O)c3ccc(OC)cc3)cc2c1C(=O)OCC | < 1 ×10⁻⁶ cm/s
CCCn1cnc2cc(NCc3ccc(OC)cc3OC)ccc21 | > 1000 ×10⁻⁶ cm/s
O=C(Cc1ccccc1)Nc1ccc(S(=O)(=O)Nc2nccs2)cc1 | 1.67 ×10⁻⁶ cm/s
O=C(CNC(=O)c1cnccn1)NC1CCCc2c1[nH]c1ccc(Cl)cc21 (stereo unspecified) | > 1000 ×10⁻⁶ cm/s
Cc1cnc(-c2ccccc2C(C)(C)C)nc1NCc1ccc(-n2ccnn2)cc1 | > 1000 ×10⁻⁶ cm/s
Cc1cccc(C)c1C(=O)Nc1cccc([S+](=O)([O-])N2CCCCCC2)c1 | 827 ×10⁻⁶ cm/s
CCN1C(=O)c2ccccc2S(=O)c2ccc(NC(=O)Cc3ccc(F)cc3)cc21 (stereo unspecified) | > 1000 ×10⁻⁶ cm/s
COc1ccccc1Nc1cnc2ccc(-c3ccc(OC)c(OC)c3)nn12 | 397 ×10⁻⁶ cm/s
O=C(NCCCn1ccnc1)c1nc(-c2ccccc2)cc2[nH]ccc12 | 597 ×10⁻⁶ cm/s
COc1cccc(C(=O)Nc2ccc([S+](=O)([O-])Nc3nccs3)cc2)c1O | 3.5 ×10⁻⁶ cm/s
CCOC(=O)C1CCN(c2ncc(-c3ccc4c(c3)OCCCO4)s2)CC1 | > 1000 ×10⁻⁶ cm/s
COc1ccc(/C=C2/C(=O)Nc3ccccc32)cc1O | > 1000 ×10⁻⁶ cm/s
Cn1nnnc1Sc1ncnc2scc(-c3cccc(S(C)(=O)=O)c3)c12 | 93.9 ×10⁻⁶ cm/s
CC(C)(C)c1ccc(-c2csc(N3CCC(C(N)=O)CC3)n2)cc1 | 370 ×10⁻⁶ cm/s
Nc1ccc(-c2cccc3c(=O)cc(N4CCOCC4)oc23)cc1 | 65.7 ×10⁻⁶ cm/s
COc1cccc(CNc2ccc(S(=O)(=O)Nc3ncccn3)cc2)c1O | 31.5 ×10⁻⁶ cm/s
CCN(CC)S(=O)(=O)c1cccc(C(=O)Nc2ccc(C#N)cc2)c1 | > 1000 ×10⁻⁶ cm/s
CNC(=O)c1nn(C)c2c1C(C)(C)Cc1cnc(Nc3ccc(N4CCN(C)CC4)cc3)nc1-2 | > 1000 ×10⁻⁶ cm/s
CCC(=O)N1CCN(c2ccc(-n3c(=O)ccc4cnc5ccc(-c6cnc7ccccc7c6)cc5c43)cc2C(F)(F)F)CC1 | 178 ×10⁻⁶ cm/s
CCOC(=O)c1ccc(N2C(=O)c3n[nH]c(-c4ccco4)c3C2c2ccc(C)cc2)cc1 (stereo unspecified) | 6.34 ×10⁻⁶ cm/s
COC(=O)c1cccc(NC(=O)c2cnc(-c3ccc(F)cc3)nc2-c2ccncc2)c1 | > 1000 ×10⁻⁶ cm/s
Cn1c2cc(S(C)=O)sc2c2cnn(Cc3cccc(N)c3)c(=O)c21 (stereo unspecified) | 106 ×10⁻⁶ cm/s

SMILES | Papp
Nc1c(-c2ccccc2)cc[nH]c1=O | 613 ×10⁻⁶ cm/s
CC1=C(C(=O)Nc2ccccc2)C(c2ccc[nH]2)n2ncnc2N1 (stereo unspecified) | 80 ×10⁻⁶ cm/s
Oc1ccc(CNc2cccnc2)c2cccnc12 | 371 ×10⁻⁶ cm/s
COC(=O)c1ccc2c(c1)nc1n2[C@@H](CNC(C)=O)COC1 | 4.45 ×10⁻⁶ cm/s
NC1CCN(C(=O)C2CCCN(c3nc(-c4ccccc4)nc4c3CCC4)C2)CC1 (stereo unspecified) | 475 ×10⁻⁶ cm/s
CC(=O)NCc1ccc(-c2csc(Nc3cccc(C)c3)n2)o1 | > 1000 ×10⁻⁶ cm/s
Cc1nn2c(c1-c1ccccc1-c1ccccc1)N(Cc1ccc(C(=O)O)s1)CCC2 | 109 ×10⁻⁶ cm/s
COc1cccc(CNc2ccc(S(=O)(=O)Nc3ccc(C4CCNCC4)cc3)cc2)c1O | 1.79 ×10⁻⁶ cm/s
O=C(NC1CCCc2c1[nH]c1c(Cl)cccc21)c1ccc2c(c1)OCO2 (stereo unspecified) | 51 ×10⁻⁶ cm/s
CC[S+](=O)([O-])Nc1ccccc1C(=O)Nc1nc(-c2ccccc2)cs1 | 512 ×10⁻⁶ cm/s
Cc1ccc(-c2cc(C(=O)NCc3cnn(C)c3)c3cc(Br)ccc3n2)cc1 | 24.2 ×10⁻⁶ cm/s
CN(C)CCOC1=Cc2ccccc2Sc2ccc(Cl)cc21 | 996 ×10⁻⁶ cm/s
CN(C)C(=O)c1cc2cnc(Nc3ccc(N4CCNCC4)cn3)nc2n1C1CCCC1 | 138 ×10⁻⁶ cm/s
CCCc1ccc(C(=O)NC(=O)c2ccccc2O)cc1 | < 1 ×10⁻⁶ cm/s
COc1ccnc(NC(=S)N2CCN(c3ccccc3C(F)(F)F)CC2)c1 | 489 ×10⁻⁶ cm/s
Cn1c(CN2CCCCC2)nc2cc(NC(=O)c3cccc(Br)c3)ccc21 | > 1000 ×10⁻⁶ cm/s
CC(C)Oc1cccc(-c2cnc(N3CCC(C(N)=O)CC3)s2)c1 | 810 ×10⁻⁶ cm/s
CCc1nc2c(sc3nc4c(cc32)COC(C)(C)C4)c(=O)n1Cc1ccco1 | > 1000 ×10⁻⁶ cm/s
CCOc1ccc(NC(=O)c2nc(S(=O)(=O)Cc3ccccc3F)ncc2Cl)cc1 | 882 ×10⁻⁶ cm/s
Cc1ccccc1-c1nc(CN2CCC(C(=O)NCCCN3CCOCC3)CC2)c(C)o1 | 432 ×10⁻⁶ cm/s
O=C(NCCc1cnc[nH]1)c1ccc(-c2ncc3cnc(-c4cccc(F)c4)cn23)cc1 | < 1 ×10⁻⁶ cm/s
C=CCc1cccc(CNc2ccc(S(=O)(=O)Nc3nccs3)cc2)c1O | 134 ×10⁻⁶ cm/s
CC1CN(c2ccc(Nc3nc(-c4ccncc4)nc4ccccc34)cc2F)CC(C)O1 (stereo unspecified) | > 1000 ×10⁻⁶ cm/s
CC1(C)CCC(CN2CCN(c3ccc(C(=O)NS(=O)(=O)c4ccc(NCC5CCOCC5)c([N+](=O)[O-])c4)c(Oc4cnc5[nH]ccc5c4)c3)CC2)=C(c2ccc(Cl)cc2)C1 | 1.5 ×10⁻⁶ cm/s
